Tests used:
[1] = system: hydrochloric acid secretion stimulated by histamine; assay: inhibition of secretion plateau stimulated by histamine in anesthetized perfused-stomach rats; type: in vivo, rat; details: 150 nmol/kg i.v., histamine 13.5 μmol/kg/h
Procedure: (§1) For the purpose of these tests, use was made of male Wistar rats weighing 300±25 g. The rats were not allowed to take solid food for 18 hours, but were allowed to drink water freely. They were then anesthesized with urethane (1.25 g/kg) by the intramuscular route. The temperature of the rats was maintained at 34° C. by means of lamps, approximately 60 cm away from them. A polyethylene catheter was introduced into the esophagus up to the level of the cardia and a second catheter for collecting the stomach secretion at the duodenum. After washing the stomach, the latter was continuously perfused with a 0.9% sodium chloride solution, at a flow rate of 1 ml/min, using a peristaltic pump connected to the catheter of the esophagus.
(§2) After a period of stabilizing the system lasting approximately 90 minutes after the operation, the compounds which it was wished to study were injected intravenously into the vein of the penis and the gastric secretion was collected by fractions taken every 20 minutes, the interval between these injections being min 90 minutes. The acidity of the sample fractions was dosed by means of a 0.01N sodium solution at the phenolphthalein colour change.
In this case, use is made of the same operating procedure as in the second group of experiments, by stimulating the secretion by histamine. In this case, a higher histamine dose (13.5 μmol/kg/h) is injected.

[2] = system: hydrochloric acid secretion; assay: hydrochloric acid secretion in anesthetized rats with perfused stomach (Ghosh and Schild, modified by Lai): agonist effect; type: in vivo, rat; details: intravenous injection, male Wistar rats
Procedure: as §1, §2

Compound	duration of inhibition of the histamine response [1]	inhibition of the histamine response (intensity) [1]	maximum inhibition percentage (mean ± ESM) ([1]; group of 4 rats)	dose from which activity on hydrochloric acid secretion is maximum [2]
CN/C(=N\CCSCc1nc[nH]c1C)NC#N [cimetidine]	approximately 3 h	approximately 55%	54.4±2.7%	–
CSCC[C@H](NC(=O)[C@H](Cc1c[nH]c2ccccc12)NC(=O)CCNC(=O)OC(C)(C)C)C(=O)N[C@@H](CC(=O)O)C(=O)N[C@@H](Cc1ccccc1)C(N)=O [pentagastrin, Boc-βAla-Trp-Met-Asp-Phe-NH2]	–	–	–	≥ 20 nmol/kg

Source: patent publication US4530837A, “Peptide derivatives, their preparation process and their pharmaceutical use” (Commissariat a l'Energie Atomique, priority 1982, dated 1985)
